Laboratory results reported in patent publication US4985428A, “Isoxazoles with nootropic activity” (Zambon Group S.p.A., priority 1987, dated 1991).
Where two headings read alike, the source gives them in different places.

Test system: electroshock (ECS) amnesia in rat
Experiment: electroshock (ECS) amnesia test in rat
Format: in vivo
Settings: male rats, dose improving retention time by 50% of Δt vs ECS control
Method: The compounds of formula I are active on central nervous system and they can be used in pharmaceutical field as nootropics. By the electroshock (ECS) amnesia test, described in example 8, in rat the pharmacological activity of the compounds object of the present invention was evaluated in comparison with the activity of Piracetam and Aniracetam. Pharmacodynamic evaluation: electroshock (ECS) amnesia test in rat Male rats weighing 130-150 g and fasting for at least 12 hours before the beginning of the test were used. The test consisted in two experiments with a resting interval of 24 hours between them. First experiment: training session The animals were trained to associate the passage from a light partition to a dark one, in a suitable box, with a noxious stimulation that is an electric stimulation through an electrified grid (foot-shock: 1 mA for 10 seconds). Second experiment: retention session The ability of the animals to remember was evaluated as the time utilized to repeat the passage through the partitions (retention time). Evaluation of the retention time in control groups of animals The test was carried out first on two groups of animals as control. […] Fixing 60 seconds as time-limit for performing the second experiment, the average time (retention time) utilized for the passage was 54 seconds for the control and 32 seconds for the ECS control. Evaluation of the retention time in groups of treated animals Groups of 20 rats underwent the training session, the treatment for inducing amnesia and the retention session after administration of the compounds object of the present invention and of the reference compounds, Piracetam and Aniracetam. The administration was carried out 30 minutes before the training session in case of intraperitoneal administration (i.p.) and 60 minutes before in case of administration by oral route. At least three doses each compound and each administration route were tested. The difference between the retention time of the control and the retention time of the ECS control was considered as reference (Δt) and it was fixed, as percentage, equal to 100. In the groups of animals which were treated and underwent ECS the activity against amnesia of the compounds object of the present invention was expressed as ED50 that is as the dose of compound able to give an improvement of the retention time equal to 50% of the reference interval (Δt) in comparison with the ECS control.

[1] = ip, intraperitoneal, 30 minutes before training session, read-out: ED50 i.p.
[2] = oral route, 60 minutes before training session, read-out: ED50 os

| Compound | ED50 [1] [µmol/kg] | ED50 [2] [µmol/kg] |
| --- | --- | --- |
| O=C(O)CCCNC(=O)c1cc(Cl)no1 [Compound 2, N-(3-chloro-5-isoxazolecarbonyl)-4-aminobutyric acid] | 160 | 260 |
| COc1cc(C(=O)NCCCC(=O)O)on1 [Compound 3, N-(3-methoxy-5-isoxazolecarbonyl)-4-aminobutyric acid] | 276 | 868 |
| O=C(O)CCCNC(=O)c1cc(Br)no1 [Compound 1, N-(3-bromo-5-isoxazolecarbonyl)-4-aminobutyric acid] | 102 | 290 |
| CCOC(=O)CNC(=O)CCCNC(=O)c1cc(Br)no1 [Compound 12, Ethyl N-[N-(3-bromo-5-isoxazolecarbonyl)-4-aminobutyroyl]glicinate] | 171 | 1000 |
| O=C(NCCCC(=O)N1CCCC1=O)c1cc(Br)no1 [Compound 21, 1-[N-(3-bromo-5-isoxazolecarbonyl)-4-aminobutyroyl]-2-pyrrolidinone] |  | 254 |
| COc1ccc(C(=O)N2CCCC2=O)cc1 [Aniracetam, 1-(4-methoxy-benzoyl)-2-pyrrolidinone, reference compound] | 353 | 1110 |
| O=C(O)CCCNC(=O)CCCNC(=O)c1cc(Br)no1 [Compound 19, N-[N-(3-bromo-5-isoxazolecarbonyl)-4-aminobutyroyl]-4-aminobutyric acid] |  | 261 |
| NC(=O)CN1CCCC1=O [Piracetam, 2-pyrrolidinoneacetamide, reference compound] | 329 | 1550 |
| O=C(NCCCC(=O)N1CCCC1)c1cc(Br)no1 [Compound 8, N-[4-oxo-4-(1-pyrrolidinyl)butyl]-3-bromo-5-isoxazolecarboxamide] | 25 | 80 |
| Cc1cc(C(=O)NCCCC(=O)O)on1 [Compound 4, N-(3-methyl-5-isoxazolecarbonyl)-4-aminobutyric acid] | 202 | 383 |
